The source of these data is article PMC6264390, “Design, Synthesis and Structure-activity Studies of Rhodanine Derivatives as HIV-1 Integrase Inhibitors” (Molecules, 2010).

Where two headings read alike, the source gives them in different places. A value given as a limit tells only on which side of the number the result lay.

The IC50 is the point on the concentration scale where inhibition reaches its midpoint. What is called melting point is the temperature, or range, at which the solid turns liquid.

Data set [1] deals with T1, human apurinic/apyrimidinic endonuclease 1 (APE1) (Homo sapiens, UniProt P27695).
T1 construct: His; made in house
T1 sequence (P27695 whole entry): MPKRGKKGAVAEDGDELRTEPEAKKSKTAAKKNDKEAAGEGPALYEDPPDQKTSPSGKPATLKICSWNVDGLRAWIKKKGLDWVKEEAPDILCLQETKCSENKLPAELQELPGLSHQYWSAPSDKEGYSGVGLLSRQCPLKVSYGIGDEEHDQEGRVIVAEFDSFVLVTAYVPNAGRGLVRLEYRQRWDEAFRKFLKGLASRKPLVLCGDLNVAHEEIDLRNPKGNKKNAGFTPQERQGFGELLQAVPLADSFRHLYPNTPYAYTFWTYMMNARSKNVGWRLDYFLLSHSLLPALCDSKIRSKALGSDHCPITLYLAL
In words: APE1 inhibition assay. Type of data set: biochemical. The following applies: for APE1 inhibition (in words): at 100 μM; for IC50: read-out: Inhibition of APE1 catalytic activity IC50. Put shortly: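 His-tagged APE1 (0.05 nM) preincubated with compound 10 min at 30 °C in MOPS pH 7.2 buffer with 7.5 mM MnCl2 and 10% DMSO, then 200 nM 5′-32P-labelled abasic (THF) duplex added for 10 min. Incision products resolved on denaturing gel, phosphorimaged; IC50 from %I versus log concentration.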

Data set [2] deals with HIV-1. In words: MT-4 cell infectivity assay. Format: cell-based. The following applies: MT-4 cells.
Data set [3] addresses T2, HIV-1 IN (Human immunodeficiency virus type 1 group M subtype B, UniProt P12497).
T2 construct: pre-incubated with purified recombinant IN (at a final concentration of 200 nM); made in house
Description: In vitro IN inhibition assay (3’-processing and strand transfer). Format: biochemical. The gist of the method: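 Recombinant HIV-1 IN (200 nM) preincubated with compound 30 min at 30 °C in MnCl2-containing buffer (MgCl2 plus PEG for Mg2+ format), then 1 h with 20 nM 5'-32P-labeled 21-mer duplex. 3'-processing and strand-transfer products resolved on denaturing gels, phosphorimager-quantified; IC50 from log-concentration versus % inhibition.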

In data set [4] the test system is IN. Details: method as in PMID 15634005. The following applies: cited from earlier work.
Setting [5] is: Mn2+ cofactor (7.5 mM MnCl2), read-out: Inhibition of IN catalytic activity IC50, 3’-Processing.
Where [6] appears, read: Mn2+ cofactor (7.5 mM MnCl2), read-out: Inhibition of IN catalytic activity IC50, Strand Transfer.

`O=C(Nc1ccc(O)cc1)C(=S)NN1C(=O)C(=Cc2cc(N=Nc3ccccc3)ccc2O)SC1=S` [Compound 48, N-(4-hydroxyphenyl)-2-[(5-{2-hydroxy-5-[(E)-phenyldiazenyl]benzylidene}-4-oxo-2-thioxo-1,3-thiaz-olidin-3-yl)amino]-2-thioxoacetamide] had a melting point of 145 to 146 °C. In data set [1], the “APE1 inhibition (in words)” value is on record as “did not show any significant APE1 inhibition” and the half-maximal inhibitory concentration (IC50) is more than 100 µM. Moreover, the “antiviral activity against HIV-1” value in data set [2] is reported as “did not show any significant antiviral activity”. Further, the IC50 in data set [3] (setting [5]) stood at 17 ± 7 µM. For the same compound, the IC50 in data set [3] (setting [6]) was 8 ± 2 µM.
`O=C(Nc1ccc(O)cc1)C(=S)NN1C(=O)C(=Cc2cc(Br)cc(Br)c2O)SC1=S` [Compound 51, 2-{[5-(3,5-Dibromo-2-hydroxybenzylidene)-4-oxo-2-thioxo-1,3-thiazolidin-3-yl]amino}-N-(4-hydroxy-phenyl)-2-thioxoacetamide] yielded a melting point of 189 to 190 °C. In addition, in data set [1], the “APE1 inhibition (in words)” value was “did not show any significant APE1 inhibition” and the IC50 is more than 100 µM. The “antiviral activity against HIV-1” value in data set [2] is on record as “did not show any significant antiviral activity”. Moreover, the concentration for half-maximal inhibition (IC50) in data set [3] (setting [5]) is 28 ± 1 µM. Also, in data set [3] (setting [6]), the IC50 was 21 ± 7 µM.
With `O=C(O)c1ccc(N2C(=O)/C(=C/c3ccccc3)SC2=S)cc1` [Compound 1], the concentration for half-maximal inhibition (IC50) in data set [4] (read-out: IC50, 3’-processing) was 15 µM; in data set [4] (read-out: IC50, strand transfer), 11 µM.
The compound `O=C(Nc1ccc(O)cc1)C(=S)NN1C(=O)C(=Cc2cc(I)cc(I)c2O)SC1=S` [Compound 53, 2-{[5-(2-Hydroxy-3,5-diiodobenzylidene)-4-oxo-2-thioxo-1,3-thiazolidin-3-yl]amino}-N-(4-hydroxy-phenyl)-2-thioxoacetamide] gave a melting point of 157 to 158 °C. Further, the IC50 in data set [1] is 62 ± 3 µM. For the same compound, the “antiviral activity against HIV-1” value in data set [2] is given as “did not show any significant antiviral activity”. Besides, the “selectivity for IN than APE1” value in data set [3] (IN versus APE1) came to 20 fold. The IC50 in data set [3] (setting [5]) turned out to be 7 ± 3 µM. Moreover, the concentration for half-maximal inhibition (IC50) in data set [3] (setting [6]) was 3 ± 2 µM. Besides, in data set [3] (in the presence of Mg^2+ as the cofactor, read-out: Inhibition of IN catalytic activity IC50, 3’-Processing, Mg2+ (converted)), the 50% inhibitory concentration (IC50) was 12.5 µM. The IC50 in data set [3] (in the presence of Mg^2+ as the cofactor, read-out: Inhibition of IN catalytic activity IC50, Strand Transfer, Mg2+ (converted)) is 11 µM.
Compound `COc1cc(Br)cc(C=C2SC(=S)N(NC(=S)C(=O)Nc3ccc(O)cc3)C2=O)c1O` [Compound 52, 2-{[5-(5-Bromo-2-hydroxy-3-methoxybenzylidene)-4-oxo-2-thioxo-1,3-thiazolidin-3-yl]amino}-N-(4-hydroxyphenyl)-2-thioxoacetamide] came in with a melting point of 176 to 177 °C. Further, in data set [1], the 50% inhibitory concentration (IC50) was more than 100 µM. Besides, in data set [3] (setting [5]), the IC50 worked out at 38 ± 27 µM. Moreover, the IC50 in data set [3] (setting [6]) was determined as 23 ± 9 µM.
In turn, `O=C(Nc1cc(C(F)(F)F)cc(C(F)(F)F)c1)C(=S)NN1C(=O)C(=Cc2ccc([N+](=O)[O-])o2)SC1=S` [Compound 16, N-[3,5-bis(trifluoromethyl)phenyl]-2-{5-[(5-nitro-2-furyl)methylene]-4-oxo-2-thioxo-1,3-thiazolidin-3-yl}amino-2-thioxoacetamide] had a melting point of 195 to 196 °C. The IC50 in data set [1] was more than 100 µM. In addition, the half-maximal inhibitory concentration (IC50) in data set [3] (setting [5]) is more than 100 µM. For the same compound, the IC50 in data set [3] (setting [6]) was determined as 74 ± 20 µM.
Turning to `Cc1cc(NC(=O)C(=S)NN2C(=O)/C(=C\c3ccc([N+](=O)[O-])o3)SC2=S)ccc1-n1cnnn1` [Compound 21, N-[3-methyl-4-(1H-tetrazol-1-yl)phenyl]-2-{5-[(5-nitro-2-furyl)methylene]-4-oxo-2-thioxo-1,3-thia-zolidin-3-yl}amino-2-thioxoacetamide], the melting point fell in the range of 161 to 162 °C. The IC50 in data set [1] is more than 100 µM. Also, the IC50 in data set [3] (setting [5]) was more than 100 µM. The IC50 in data set [3] (setting [6]) was more than 100 µM.
With `COc1cc(NC(=O)C(=S)NN2C(=O)C(=Cc3cc(N=Nc4ccccc4)ccc3O)SC2=S)cc(OC)c1OC` [Compound 34, 2-[(5-{2-Hydroxy-5-[phenyldiazenyl]benzylidene}-4-oxo-2-thioxo-1,3-thiazolidin-3-yl)amino]-2-thioxo-N-(3,4,5-trimethoxyphenyl)acetamide], the melting point lay within 149 to 150 °C. Besides, the IC50 in data set [1] is more than 100 µM. Moreover, the concentration for half-maximal inhibition (IC50) in data set [3] (setting [5]) stood at 33 ± 19 µM. Besides, in data set [3] (setting [6]), the IC50 was found to be 26 ± 14 µM.
Take `O=C(Nc1ccc(O)cc1)C(=S)NN1C(=O)C(=Cc2ccc(O)c(C(=O)O)c2)SC1=S` [Compound 49, 2-Hydroxy-5-{[3-({2-[(4-hydroxyphenyl)amino]-2-oxoethanethioyl}amino)-4-oxo-2-thioxo-1,3-thiazolidin-5-ylidene]methyl}benzoic acid]: the melting point lay in the range of 223 to 224 °C. In data set [1], the half-inhibitory concentration (IC50) was more than 100 µM. Further, the IC50 in data set [3] (setting [5]) amounted to 80 µM. Also, the IC50 in data set [3] (setting [6]) amounted to 45 µM.
In the case of `O=C(Nc1ccc(F)cc1)C(=S)NN1C(=O)C(=Cc2ccc(Cl)cc2)SC1=S` [Compound 6, 2-{[5-(4-Chlorobenzylidene)-4-oxo-2-thioxo-1,3-thiazolidin-3-yl]amino}-N-(4-fluorophenyl)-2-thioxo-acetamide], the melting point was 204 to 205 °C. In addition, the IC50 in data set [1] is more than 100 µM. Besides, in data set [3] (setting [5]), the IC50 was more than 100 µM. In addition, the IC50 in data set [3] (setting [6]) is more than 100 µM.
Take `COc1cc(NC(=O)C(=S)NN2C(=O)C(=Cc3cc(Cl)cc(Cl)c3O)SC2=S)cc(OC)c1OC` [Compound 36, 2-{[5-(3,5-Dichloro-2-hydroxybenzylidene)-4-oxo-2-thioxo-1,3-thiazolidin-3-yl]amino}-2-thioxo-N-(3,4,5-trimethoxyphenyl)acetamide]: the melting point lay within 215 to 216 °C. Further, the IC50 in data set [1] was more than 100 µM. Also, in data set [3] (setting [5]), the IC50 came to 46 ± 5 µM. The 50% inhibitory concentration (IC50) in data set [3] (setting [6]) was more than 100 µM.
`COc1cc(NC(=O)C(=S)NN2C(=O)C(=Cc3cccc([N+](=O)[O-])c3O)SC2=S)cc(OC)c1OC` [Compound 29, 2-{[5-(2-Hydroxy-3-nitrobenzylidene)-4-oxo-2-thioxo-1,3-thiazolidin-3-yl]amino}-2-thioxo-N-(3,4,5-trimethoxyphenyl)acetamide] came in with a melting point of 193 to 194 °C. In data set [1], the IC50 was more than 100 µM. The IC50 in data set [3] (setting [5]) is 74 ± 18 µM. Further, in data set [3] (setting [6]), the IC50 was 72 ± 23 µM.
`C=CCc1cccc(C=C2SC(=S)N(NC(=S)C(=O)Nc3ccc(O)cc3)C2=O)c1O` [Compound 46, 2-{[5-(3-Allyl-2-hydroxybenzylidene)-4-oxo-2-thioxo-1,3-thiazolidin-3-yl]amino}-N-(4-hydroxy-phenyl)-2-thioxoacetamide]: the melting point fell in the range of 153 to 154 °C. The IC50 in data set [1] is more than 100 µM. In addition, the IC50 in data set [3] (setting [5]) is more than 100 µM. The 50% inhibitory concentration (IC50) in data set [3] (setting [6]) came to 100 µM.
As for `CCOc1cccc(C=C2SC(=S)N(NC(=S)C(=O)Nc3ccc(O)cc3)C2=O)c1O` [Compound 45, 2-{[5-(3-Ethoxy-2-hydroxybenzylidene)-4-oxo-2-thioxo-1,3-thiazolidin-3-yl]amino}-N-(4-hydroxyphenyl)-2-thioxoacetamide], the melting point lay within 184 to 185 °C. Besides, the half-maximal inhibitory concentration (IC50) in data set [1] is more than 100 µM. Also, the IC50 in data set [3] (setting [5]) is more than 100 µM. Further, the IC50 in data set [3] (setting [6]) was more than 100 µM.
Consider `COc1cc(NC(=O)C(=S)NN2C(=O)C(=Cc3cc([N+](=O)[O-])ccc3O)SC2=S)cc(OC)c1OC` [Compound 30, 2-{[5-(2-Hydroxy-5-nitrobenzylidene)-4-oxo-2-thioxo-1,3-thiazolidin-3-yl]amino}-2-thioxo-N-(3,4,5-trimethoxyphenyl)acetamide], for which the melting point lay within 205 to 206 °C. Further, in data set [1], the IC50 is more than 100 µM. Besides, the 50% inhibitory concentration (IC50) in data set [3] (setting [5]) was 47 ± 30 µM. Further, in data set [3] (setting [6]), the IC50 was more than 100 µM.
